Assay results as given in patent EP2150534B1, “ISOQUINOLINONE DERIVATIVES AS NK3 ANTAGONISTS” (H. Lundbeck A/S, priority 2007, dated 2008).
Where two headings read alike, the source gives them in different places.

How the values were obtained:
human NK3 receptor [1] = target: T1, human NK3 receptor (Homo sapiens, UniProt P29371); test: NK3 receptor efficacy and potency assay (FLIPR Calcium 4 assay, BHK cells; agonist and antagonist mode versus NKB); format: cell-based; conditions: read-out: Potency cIC50
T1 construct: expressed in transfected cells; membranes prepared from them
T1 sequence (P29371 1-465): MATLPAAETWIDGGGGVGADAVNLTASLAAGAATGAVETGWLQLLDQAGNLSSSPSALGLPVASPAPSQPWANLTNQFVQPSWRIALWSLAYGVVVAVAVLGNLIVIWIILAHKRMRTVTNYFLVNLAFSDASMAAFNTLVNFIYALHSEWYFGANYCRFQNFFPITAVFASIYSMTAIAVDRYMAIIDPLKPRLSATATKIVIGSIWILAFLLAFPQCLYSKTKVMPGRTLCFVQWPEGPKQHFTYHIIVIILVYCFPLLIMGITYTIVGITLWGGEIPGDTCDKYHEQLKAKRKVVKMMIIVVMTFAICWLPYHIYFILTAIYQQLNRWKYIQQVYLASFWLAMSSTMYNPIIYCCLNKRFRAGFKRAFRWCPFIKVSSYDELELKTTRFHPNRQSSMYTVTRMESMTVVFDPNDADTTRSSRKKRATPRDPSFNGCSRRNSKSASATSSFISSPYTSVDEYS
Procedure: BHK cells stably expressing the human NK3 receptor were seeded in 100 µl media in black walled clear-base 96-wells plates (Costar) aiming at a confluency of 95-100% at the day of assay. The assay was performed according to the FLIPR Calcium 4 Assay kit (Molecular Devices). At the day of the assay, the media was removed and the cells were washed once with the HBSS buffer (Hanks BSS buffer, pH 7,4 containing 20 mM Hepes) before 100 µl of a solution of the calcium assay reagent dissolved in the HBSS buffer containing 2,5 mM probinicid was added to the cells. The plates were incubated for 60 min at 34°C, 10% CO2 before use in the FLIPR for examination of fluorescence.
For efficacy and potency evaluation of compounds, these were diluted in HBSS buffer prior to test. For test of agonist activity, 25 µl of the diluted compound solution was added and the plate was analyzed for 5 minutes in the FLIPR. […] The plates were subsequently analyzed for 5 minutes before the assay was terminated. The maximal increase in fluorescence over background following each ligand addition was determined.

human NK3 receptor [2] = target: T1, human NK3 receptor; test: NK3 receptor binding assay (SPA-based competition binding with 125I-NKB, membranes of BHK cells)
Procedure: Membranepreparation: BHK cells stably expressing the human NK3 receptor were seeded in harvesting plates in Dulbeccos MEM containing GlutaMax (862 mg/l), 1 mM sodium pyruvate, 10% fetal calf serum, 1% Pen/Strep, I mg/ml G418 and were grown at 34 °C in a humidified atmosphere containing 10% CO2. To increase receptor expression, 10 µM trichotatin A was added to the media 24 hours before harvest of the cells at a confluency of app 90%. Prior to the harvesting, the cells were washed twice with PBS without Mg^2+ og Ca^2+ and subsequently scrapped of in 10 ml PBS pr harvesting plate. The cells suspension were centrifuged at 1500xG in three minutes before resuspension in 15 mM Tris-HCl pH 7,5 buffer containing 2 mM MgCl2; 0,3 mM EDTA and 1 mM EGTA (buffer A). The cell suspention was homogenised and subsequently centrifuged at 40000xG in 30 minutes. The membrane-pellet was resuspended in buffer A containing 250 mM sucrose, alliquoted and stored at - 80°C.
Affinity assay description: The assay was performed as a SPA-based competition-binding assay in a 50 mM Tris pH 7.4 assay buffer containing 120 mM NaCl, 3 mM MnCl2, 40 µg/ml bacitracin, 2 µg/ml Chymostatin, 1 µg/ml Phosphoramidon and 4 µg/ml Leupeptin. App 0.02 nM ^125I-NKB was mixed with test compounds before addition of 4 µg of the homogenised NK3 membrane preparation and 0,025 mg SPA beads in a total volume of 60 µl. The assay plate was subsequently under agitation incubated for 90 min at RT. The plate was centrifugated 10 minutes at 500xG and counted in a topcounter 5 minuttes pr well.
The non-specific binding constituted app 5 % of the total binding.
Data points were expressed in percent of the specific binding of ^125I-NKB and the IC50 values (concentration causing 50 percent inhibition of ^125I-NKB specific binding) were determined by non-linear regression analysis using a sigmoidal variable slope curve fitting. The dissociation constant (Ki) were calculated from the Cheng Prusoff equation (Ki = IG50/(1+(L/KD))), where the concentration of free radioligand L is approximated to the concentration of added ^125I-NKB in the assay (app 0,02 nM).
The KD of ^125I-NKB was determined to be 0,7 nM from three independent saturation assays each performed with duplicate determinations. Bmax was app 2 pmol/mg.

[3] = table of Example 10, affinity obtained as described in Example 9, read-out: Affinity Ki
[4] = Ki for the NK3 receptor, table of Example 9, 125I-NKB competition binding, read-out: Ki

| Structure (SMILES) | IC50 (human NK3 receptor [1]) [nM] | Ki (human NK3 receptor [2]; [3]) [nM] | Ki (human NK3 receptor [2]; [4]) [nM] |
| --- | --- | --- | --- |
| CC[C@H](NC(=O)c1c(CN2CCC(O)(c3cccc(OC)c3)CC2)n(-c2ccccc2)c(=O)c2ccccc12)c1ccccc1 [Example 2gt, 3-[4-Hydroxy-4-(3-methoxy-phenyl)-piperidin-1-ylmethyl]-1-oxo-2-phenyl-1,2-dihydro-isoquinoline-4-carboxylic acid ((S)-1-phenyl-propyl)-amide] | 22 | 9.2 |  |
| Cc1c(C(=O)N[C@H](c2ccccc2)C2CCC2)c2cccc(Cl)c2c(=O)n1-c1ccccc1 [Example 1bn, 8-Chloro-3-methyl-1-oxo-2-phenyl-1,2-dihydro-isoquinoline-4-carboxylic acid ((S)cyclobutyl-phenyl-methyl)-amide] | 23 | 23 |  |
| CC[C@H](NC(=O)c1c(CN2CCCC2=O)n(-c2ccccc2)c(=O)c2c(Cl)cccc12)c1ccccc1 [Example 3b] | 47 | 32 |  |
| O=C(NC(c1cccc(F)c1)C1CC1)c1c(CN2CCN(CCN3CCOCC3)CC2)n(-c2ccccc2)c(=O)c2ccccc12 (centres unmarked) [Example 2hs] | 21 | 7.5 | 5.3 |
| CC[C@H](NC(=O)c1c(CN2CCN(CCN3CCCC3)CC2)n(-c2ccccc2)c(=O)c2ccccc12)c1ccccc1 [Example 2bq, 1-Oxo-2-phenyl-3-[4-(2-pyrrolidin-1-yl-ethyl)-pipcrazin-1-ylmethyl]-1,2-dihydro-isoquinolinc-4-carboxylic acid ((S)-1-phenyl-propyl)-amide] | 220 | 160 |  |
| CC[C@H](NC(=O)c1c(CN2CCC(O)(c3cccc(OC)c3)CC2)n(-c2ccccc2)c(=O)c2c(Cl)cccc12)c1ccccc1 [Example 2kn, 8-Chloro-3-[4-hydroxy-4-(3-methoxy-phenyl)-piperidin-1-ylmethyl]-1-oxo-2-phenyl-1,2-dihydro-isoquinoline-4-carboxylic acid ((S)-1-phenyl-propyl)-amide] | 41 | 8.7 |  |
| CC[C@H](NC(=O)c1c(CN2CCCNCC2)n(-c2ccccc2)c(=O)c2c(Cl)cccc12)c1ccccc1 [Example 2kh, 8-Chloro-3-[1,4]diazepan-1-ylmethyl-1-oxo-2-phenyl-1,2-dihydro-isoquinoline-4-carboxylic acid ((S)-1-phenyl-propyl)-amide] | 120 | 82 |  |
| CC[C@H](NC(=O)c1c(CN2CCN(C(C)(C)C)CC2)n(-c2ccccc2)c(=O)c2c(F)cccc12)c1ccccc1 [Example 2lj, 3-(4-tert-Butyl-piperazin-1-ylmethyl)-8-fluoro-1-oxo-2-phenyl-1,2-dihydro-isoquinoline-4-carboxylic acid ((S)-1-phenyl-propyl)-amide] | 16 | 18 |  |
| O=C(NC(c1cccc(F)c1)C1CC1)c1c(CN2CCN(CCN3CCCCC3)CC2)n(-c2ccccc2)c(=O)c2ccccc12 (centres unmarked) [Example 2hu, 1-Oxo-2-phenyl-3-[4-(2-piperidin-1-yl-ethyl)-piperazin-1-ylmethyl]-1,2-dihydro-isoquinoline-4-carboxylic acid [cyclopropyl-(3-fluoro-phenyl)-methyl]-amide] | 29 | 6.2 |  |

The next lines start with the values.

| IC50 (human NK3 receptor [1]) [nM] | Ki (human NK3 receptor [2]; [3]) [nM] | Ki (human NK3 receptor [2]; [4]) [nM] | Structure (SMILES) |
| --- | --- | --- | --- |
| 100 | 12 |  | CC(=O)N(C)C1(c2ccccc2)CCN(Cc2c(C(=O)NC(c3cccc(F)c3)C3CC3)c3ccccc3c(=O)n2-c2ccccc2)CC1 (centres unmarked) [Example 2ia, 3-[4-(Acetyl-methyl-amino)-4-phenyl-piperidin-1-ylmethyl]-1-oxo-2-phenyl-1,2-dihydro-isoquinoline-4-carboxylic acid [cyclopropyl-(3-fluoro-phenyl)-methyl]-amide] |
| 24 | 23 |  | Cc1c(C(=O)N[C@H](c2ccccc2)C2CC2)c2cccc(F)c2c(=O)n1-c1ccccc1 [Example 6c, 8-Fluoro-3-methyl-1-oxo-2-phenyl-1,2-dihydro-isoquinoline-4-carboxylic acid ((S)-cyclopropyl-phenyl-methyl)-amide] |
| 360 | 290 |  | CC[C@H](NC(=O)c1c(CN2CCCCCC2)n(-c2ccccc2)c(=O)c2ccccc12)c1ccccc1 [Example 2ah, 3-Azepan-1-ylmethyl-1-oxo-2-phenyl-1,2-dihydro-isoquinoline-4-carboxylic acid ((S)-1-phenyl-propyl)-amide] |
| 6.3 | 7.9 |  | CC(C)(C)N1CCN(Cc2c(C(=O)N[C@H](c3cccc(F)c3)C3CC3)c3cccc(F)c3c(=O)n2-c2ccccc2)CC1 [Example 2ll, 3-(4-tert-Butyl-piperazin-1-ylmethyl)-8-fluoro-1-oxo-2-phenyl-1,2-dihydro-isoquinoline-4-carboxylic acid [(S)-cyclopropyl-(3-fluoro-phenyl)-methyl]-amide] |
| 480 | 240 |  | CC[C@H](NC(=O)c1c(CN2CCC2)n(-c2ccccc2)c(=O)c2ccccc12)c1ccccc1 [Example 2ey, 3-Azetidin-1-ylmethyl-1-oxo-2-phenyl-1,2-dihydro-isoquinoline-4-carboxylic acid ((S)-1-phenyl-propyl)-amide] |
| 81 | 21 |  | Cc1c(C(=O)N[C@H](c2cccc(F)c2)C2CCC2)c2cccc(Cl)c2c(=O)n1-c1ccccc1 [Example 1bh, 8-Chloro-3-methyl-1-oxo-2-phenyl-1,2-dihydro-isoquinoline-4-carboxylic acid [(S)-cyclobutyl-(3-fluoro-phenyl)-methyl]-amide] |
| 44 | 10 |  | O=C(NC(c1cccc(F)c1)C1CC1)c1c(CN2CCN(CCc3ccccc3)CC2)n(-c2ccccc2)c(=O)c2ccccc12 (centres unmarked) [Example 2hq, 1-Oxo-3-(4-phenethyl-piperazin-1-ylmethyl)-2-phenyl-1,2-dihydro-isoquinoline-4-carboxylic acid [cyclopropyl-(3-fluoro-phenyl)-methyl]-amide] |
| 63 | 8.8 |  | O=C(NC(c1cccc(F)c1)C1CC1)c1c(CN2CCC(CCN3CCOCC3)CC2)n(-c2ccccc2)c(=O)c2ccccc12 (centres unmarked) [Example 2hy, 3-[4-(2-Morpholin-4-yl-ethyl)-piperidin-1-ylmethyl]-1-oxo-2-phenyl-1,2-dihydro-isoquinoline-4-carboxylic acid [cyclopropyl-(3-fluoro-phenyl)-methyl]-amide] |
|  |  | 180 | CC[C@H](NC(=O)c1c(CN(C)C)n(-c2ccccc2)c(=O)c2ccccc12)c1ccccc1 [Example 2a, 3-Dimethylarrtinomethyl-1-oxo-2 phenyl-1,2-dihydro-isoquinoline-4-carboxylic acid ((S)-1-phenyl-propyl)-amide] |
|  |  | 55 | Cc1c(C(=O)NN(c2ccccc2)c2ccccc2)c2ccccc2c(=O)n1-c1ccccc1 [Example 5a, 3-Methyl-1-oxo-2 phenyl-1,2-dihydro-isoquinoline-4-carboxylic acid N',N'-diphenyl-hydrazide] |
|  | 470 |  | Cc1c(C(=O)N[C@@H](c2cccc(F)c2)C2CC2)c2cccc(Cl)c2c(=O)n1-c1ccccc1 [Example 1bl, 8-Chloro-3-methyl-1-oxo-2-phenyl-1,2-dihydro-isoquinoline-4-carboylic acid [(R)-cyclopropyl-(3-fluoro-phenyl)-methyl]-amide] |
